Data reported in patent US9592223B2, “Small molecule inhibitors of MALT1” (Cornell University, priority 2012, dated 2017).

Key:
Caspase-3/7 activity = Caspase-3/7 activity or apoptosis in cell-based assays; conditions: concentrations which suppress MALT1
[1] = tested on: NF-κB signaling gene signatures; assay: Gene expression profiling and GSEA in HBL-1 and TMD8 cell lines; assay type: cell-based, human; conditions: 8 hr, HBL-1 200 nM, TMD8 500 nM
Procedure: The impact of MI-2 on NF-κB signaling was further characterized by gene expression profiling. […] Z-VRPR-FMK was previously shown to attenuate the NF-κB signature in ABC-DLBCL cell lines (Hailfinger et al., 2009). […] GSEA was next performed using two independent ABC-DLBCL NF-κB gene expression signatures derived from either OCI-Ly3 and OCI-Ly10 or HBL-1 cell lines.
RNA integrity was determined using the RNA 6000 Nano LabChip Kit on an Agilent 2100 Bioanalyzer (Agilent Technologies, Santa Clara, Calif.). Samples were processed following Illumina recommendations and cRNA was hybridized to the HumanHT-12 v4 Expression BeadChip (Illumina, San Diego, Calif.). Arrays were scanned on the iScan system. Data pre-processing and quality control were performed using GenomeStudio. The data were log2-transformed combined with quantile normalization (Du et al., 2008). GEO accession number GSE40003.
In order to determine the biological significance of the results, enrichment tests with respect to sets of related genes were carried out. To this end, we used GSEA (Gene Set Enrichment Analysis) software, and datasets were pre-ranked by fold change value (Subramanian et al., 2005). The p-values for each gene-set were computed on the basis of 1,000 iterations and multiple hypotheses testing correction for FDR calculation (Storey and Tibshirani, 2003).

[2] = tested on: primary human GCB DLBCL cells; assay: Primary human DLBCL cells ex vivo, GCB cases, Trypan blue; assay type: cell-based; conditions: 0.8 μM, 48 hr
Procedure: After 48 hr exposure, cell number and viability were determined using Trypan blue.
Patient de-identified tissues were obtained in accordance with the guidelines and approval of the Weill Cornell Medical College Review Board. Patient samples were processed as previously described (Cerchietti et al., 2010). Briefly, single cell suspensions from lymph node biopsies were obtained by physical disruption of tissues followed by cell density gradient separation (Fico/Lite LymphoH, Atlanta Biologicals, Lawrenceville, Ga.). Cell number and viability were determined by Trypan blue exclusion. Primary DLBCL cells were cultured in 96-well plates. Cells were grown in advanced RPMI medium with 20% FBS supplemented with antibiotics for 48 hours. […] After 48 hr of exposure, viability was determined by using Trypan blue (Sigma). All samples were normalized to their own replicate control. Statistical significance was calculated using paired T-test.

COCCOc1nc(-c2ccc(Cl)c(Cl)c2)n(-c2ccc(NC(=O)CCl)cc2)n1 [MI-2]
inhibition of Caspase-3/7 activity or apoptosis (Caspase-3/7 activity): did not inhibit
GSEA of ABC-DLBCL NF-κB gene expression signatures [1]: significant enrichment of these NF-κB gene sets among genes downregulated
GSEA of Z-VRPR-FMK signature [1]: significantly enriched among genes downregulated after MI-2-treatment
response of cell number and viability [2]: none of the GCBs did
